# Data published in patent US20230348424A1, “HETEROCYCLIC COMPOUNDS AND METHODS OF USE” (Schrödinger, Inc., priority 2022, published 2023).
# Molecular target: SOS1:KRAS (G12C) interaction (Homo sapiens (Human), UniProt Q07889)
# Assay: SOS1 KRas(G12C) FRET Assay
# Type: binding
# Details: 0.5 nM His10-SOS1 (res. 564-1049), 2.5 nM GST-KRAS G12C (res. 1-169), 2 hrs at RT
# Procedure, shortened: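 GST-KRAS G12C (res. 1-169) at 2.5 nM and His10-SOS1 (res. 564-1049) at 0.5 nM, final, in PBS with 0.1% BSA, 5 mM MgCl2, 100 mM KF, 5 mM DTT and 0.5% DMSO. After 2 h at RT, FRET read at 665/615 nm and normalized to DMSO and no-SOS1 controls. IC50 by non-linear regression.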
# Sequence of SOS1:KRAS (G12C) interaction (Q07889 564-1049, stated change not applied): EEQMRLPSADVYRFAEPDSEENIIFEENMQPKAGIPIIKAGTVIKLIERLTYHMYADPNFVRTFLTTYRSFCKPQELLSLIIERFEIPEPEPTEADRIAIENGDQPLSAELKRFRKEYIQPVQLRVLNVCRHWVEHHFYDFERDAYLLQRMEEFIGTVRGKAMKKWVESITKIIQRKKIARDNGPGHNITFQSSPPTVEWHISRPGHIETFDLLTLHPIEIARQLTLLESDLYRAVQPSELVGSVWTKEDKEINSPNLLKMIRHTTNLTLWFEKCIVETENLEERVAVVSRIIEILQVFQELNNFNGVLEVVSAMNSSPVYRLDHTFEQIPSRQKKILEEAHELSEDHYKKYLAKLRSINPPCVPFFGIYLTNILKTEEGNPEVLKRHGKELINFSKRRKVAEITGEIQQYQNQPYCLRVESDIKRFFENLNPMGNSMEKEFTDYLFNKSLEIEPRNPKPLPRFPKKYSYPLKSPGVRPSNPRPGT
row,SMILES,IC50 [nM]
1,"CN1C[C@@H]2[C@H](C1)[C@H]2Nc1cc(=O)n(C2(C(F)F)CC2)cc1C(=O)N[C@H](c1cccc(C(F)F)c1F)C(F)F [Example 159, N-((R)-1-(3-(difluoromethyl)-2-fluorophenyl)-2,2-difluoroethyl)-1-(1-(difluoromethyl)cyclopropyl)-4-(((1R,5S,6s)-3-methyl-3-azabicyclo[3.1.0]hexan-6-yl)amino)-6-oxo-1,6-dihydropyridine-3-carboxamide]",1060
2,"C[C@@H](NC(=O)c1cn([C@@H]2C[C@@H]2C)c(=O)cc1N[C@H]1[C@@H]2CN(C)C[C@@H]21)c1cccc(C(F)F)c1F (single isomer, unassigned) [Example 274]",10.6
3,"C[C@@H](NC(=O)c1cn(C2(C(F)F)CC2)c(=O)cc1N[C@@H]1CCCn2cncc21)c1cccc(C(F)F)c1F (single isomer, unassigned) [Example 184]",55.8
4,"C[C@@H](NC(=O)c1cn(C2(C(F)F)CC2)c(=O)cc1NC1CCN(C)C2(CC2)C1)c1cccc(C(F)F)c1F (stereo partly drawn) [Example 240, N-((R)-1-(3-(difluoromethyl)-2-fluorophenyl)ethyl)-1-(1-(difluoromethyl)cyclopropyl)-4-((4-methyl-4-azaspiro[2.5]octan-7-yl)amino)-6-oxo-1,6-dihydropyridine-3-carboxamide]",13.5
5,"Cc1c([C@@H](C)NC(=O)c2cn(C3CCOCC3)c(=O)cc2NC[C@H]2CC[C@H](N(C)C)CC2)cccc1C(F)(F)F [Example 301, 4-((((1r,4R)-4-(dimethylamino)cyclohexyl)methyl)amino)-N-((R)-1-(2-methyl-3-(trifluoromethyl)phenyl)ethyl)-6-oxo-1-(tetrahydro-2H-pyran-4-yl)-1,6-dihydropyridine-3-carboxamide]",45.3
6,"Cc1c([C@@H](C)NC(=O)c2cn(C3CCOCC3)c(=O)cc2N[C@@H]2[C@@H]3CC[C@H]2CN(C)C3)cccc1C(F)(F)F (single isomer, unassigned) [Example 31]",27.6
7,"C[C@H](NC(=O)c1cn(C23CC(C2)C3)c(=O)cc1N[C@H]1[C@@H]2CN(C)C[C@@H]21)c1cccc(C#N)c1Cl (single isomer, unassigned) [Example 178]",> 10000
8,"C[C@@H](NC(=O)c1cn(C23CC(C2)C3)c(=O)cc1N[C@H]1[C@@H]2CN(C)C[C@@H]21)c1cccc(C#N)c1Cl (single isomer, unassigned) [Example 177]",55.6
9,"Cc1cc([C@@H](C)NC(=O)c2cn(C3(C(F)F)CC3)c(=O)cc2NC2CCN(C)CC2)cc(C(F)(F)F)n1 (single isomer, unassigned) [Example 171]",1250
10,"Cc1c([C@@H](C)NC(=O)c2cn(C3CCOCC3)c(=O)cc2N[C@@H]2C[C@@H]3CC[C@H]2N3C)cccc1C(F)(F)F (single isomer, unassigned) [Example 37]",32.9
11,"Cc1c([C@@H](C)NC(=O)c2cn(C3CCOCC3)c(=O)cc2N[C@H]2CC[C@@]23CCCN(C)C3)cccc1C(F)(F)F (single isomer, unassigned) [Example 296]",252
12,"C[C@@H](NC(=O)c1cn(C2(C(F)F)CC2)c(=O)cc1N[C@H]1[C@@H]2CC[C@H]1CN(C)C2)c1cccc(C(F)F)c1F [Example 293, N-((R)-1-(3-(difluoromethyl)-2-fluorophenyl)ethyl)-1-(1-(difluoromethyl)cyclopropyl)-4-(((1R,5S,8r)-3-(methyl-d3)-3-azabicyclo[3.2.1]octan-8-yl)amino)-6-oxo-1,6-dihydropyridine-3-carboxamide]",19.2
13,"C[C@@H](NC(=O)c1cn(C2(C(F)F)CC2)c(=O)cc1NC[C@H]1CCCN1C)c1cccc(C(F)F)c1F [Example 221, N-((R)-1-(3-(difluoromethyl)-2-fluorophenyl)ethyl)-1-(1-(difluoromethyl)cyclopropyl)-4-((((R)-1-methylpyrrolidin-2-yl)methyl)amino)-6-oxo-1,6-dihydropyridine-3-carboxamide]",38.2
14,"C[C@@H](NC(=O)c1cn([C@@H]2CC23CC3)c(=O)cc1N[C@H]1[C@@H]2CN(C)C[C@@H]21)c1cccc(C(F)(F)F)c1F (single isomer, unassigned) [Example 218]",15.8
15,"COc1ccc([C@H](C)NC(=O)c2cn(C3(C(F)F)CC3)c(=O)cc2NC2CCN(C)CC2)c(F)c1C(F)(F)F (single isomer, unassigned) [Example 166]",193
16,"CC(NC(=O)c1cn(C2(C(F)F)CC2)c(=O)cc1NC1CCN(C)CC1)c1cccc(C(F)(F)F)c1Cl (stereo not drawn) [Example 170, N-(1-(2-chloro-3-(trifluoromethyl)phenyl)ethyl)-1-(1-(difluoromethyl)cyclopropyl)-4-((1-methylpiperidin-4-yl)amino)-6-oxo-1,6-dihydropyridine-3-carboxamide]",40.9
17,"C[C@@H](NC(=O)c1cn([C@@]2(C(F)(F)F)CCOC2)c(=O)cc1N[C@H]1[C@@H]2CN(C)C[C@@H]21)c1cccc(C(F)F)c1F (single isomer, unassigned) [Example 234]",9.2

# Continued by falling IC50, values first:
row,IC50 [nM],SMILES
1,315,"C[C@@H](NC(=O)c1cn(C23CC(C2)C3)c(=O)cc1N)c1cccc(C(F)F)c1F [Example 190, (R)-4-amino-1-(bicyclo[1.1.1]pentan-1-yl)-N-(1-(3-(difluoromethyl)-2-fluorophenyl)ethyl)-6-oxo-1,6-dihydropyridine-3-carboxamide]"
2,149,"C[C@@H](NC(=O)c1cn([C@@H]2CCC2(F)F)c(=O)cc1N[C@H]1[C@@H]2CC[C@H]1CN(C)C2)c1cccc(C(F)F)c1F [Example 213, 1-((R)-2,2-difluorocyclobutyl)-N-((R)-1-(3-(difluoromethyl)-2-fluorophenyl)ethyl)-4-(((1R,5S,8r)-3-methyl-3-azabicyclo[3.2.1]octan-8-yl)amino)-6-oxo-1,6-dihydropyridine-3-carboxamide]"
3,142,"C[C@@H](NC(=O)c1cn([C@]2(C(F)(F)F)CCOC2)c(=O)cc1N[C@H]1[C@@H]2CN(C)C[C@@H]21)c1cccc(C(F)F)c1F (single isomer, unassigned) [Example 235]"
4,43.1,"C[C@@H](NC(=O)c1cn(C2(C(F)F)CCC2)c(=O)cc1N[C@H]1[C@@H]2C[C@H]1CN(C)C2)c1cccc(C(F)F)c1F (single isomer, unassigned) [Example 253]"
5,41.7,"C[C@@H](NC(=O)c1cn(C2(C(F)F)CC2)c(=O)cc1N[C@@H]1CCN2CCC[C@@H]2C1)c1cccc(C(F)F)c1F (single isomer, unassigned) [Example 306]"
6,41.2,"C[C@@H](NC(=O)c1cn(C2(C(F)F)CC2)c(=O)cc1N[C@H]1[C@@H]2CN(C3CC3)C[C@@H]21)c1cccc(C(F)F)c1F [Example 60, 4-(((1R,5S,6s)-3-cyclopropyl-3-azabicyclo[3.1.0]hexan-6-yl)amino)-N-((R)-1-(3-(difluoromethyl)-2-fluorophenyl)ethyl)-1-(1-(difluoromethyl)cyclopropyl)-6-oxo-1,6-dihydropyridine-3-carboxamide]"
7,36.3,"Cc1c([C@@H](C)NC(=O)c2cn(C3CCOCC3)c(=O)cc2NCC2(F)CN(C)C2)cccc1C(F)(F)F [Example 30, (R)-4-(((3-fluoro-1-methylazetidin-3-yl)methyl)amino)-N-(1-(2-methyl-3-(trifluoromethyl)phenyl)ethyl)-6-oxo-1-(tetrahydro-2H-pyran-4-yl)-1,6-dihydropyridine-3-carboxamide]"
8,34.1,"C[C@@H](NC(=O)c1cn(C2(C(F)F)CC2)c(=O)cc1N[C@H]1[C@@H]2C[C@H]1CN(C)C2)c1cccc(C(F)F)c1F (single isomer, unassigned) [Example 251]"
9,28.2,"[2H]C([2H])([2H])N1C[C@@H]2[C@H](C1)[C@H]2Nc1cc(=O)n(C2(C(F)F)CC2)cc1C(=O)N[C@H](C)c1cccc(C(F)F)c1F [Example 57, N-((R)-1-(3-(difluoromethyl)-2-fluorophenyl)ethyl)-1-(1-(difluoromethyl)cyclopropyl)-4-(((1R,5S,6s)-3-(methyl-d3)-3-azabicyclo[3.1.0]hexan-6-yl)amino)-6-oxo-1,6-dihydropyridine-3-carboxamide]"
10,26.9,"C[C@@H](NC(=O)c1cn([C@H]2CC23CC3)c(=O)cc1N[C@H]1[C@@H]2CN(C)C[C@@H]21)c1cccc(C(F)(F)F)c1F (single isomer, unassigned) [Example 219]"
11,23.3,"C[C@@H](NC(=O)c1cn(C2(C(F)F)CC2)c(=O)cc1N[C@H]1CCN2CCC[C@H]2C1)c1cccc(C(F)F)c1F (single isomer, unassigned) [Example 305]"
12,18,"Cc1c([C@@H](C)NC(=O)c2cn(C3CCOCC3)c(=O)cc2N[C@H]2CCCN(C)CC2)cccc1C(F)(F)F (single isomer, unassigned) [Example 33]"
13,15.7,"C[C@@H]1C[C@@H]1n1cc(C(=O)N[C@H](C)c2cccc(C(F)F)c2F)c(N[C@H]2[C@@H]3CN(C)C[C@@H]32)cc1=O (single isomer, unassigned) [Example 273]"
14,14.3,"C[C@@H](NC(=O)c1cn(C2(C(F)F)CC2)c(=O)cc1N[C@H]1CCN(C)C[C@H]1F)c1cccc(C(F)F)c1F (single isomer, unassigned) [Example 68]"
15,14.1,"C[C@@H](NC(=O)c1cn(C2(C(F)(F)F)CCCC2)c(=O)cc1NC1CCN(C)CC1)c1cccc(C(F)F)c1F [Example 223, (R)-N-(1-(3-(difluoromethyl)-2-fluorophenyl)ethyl)-4-((1-methylpiperidin-4-yl)amino)-6-oxo-1-(1-(trifluoromethyl)cyclopentyl)-1,6-dihydropyridine-3-carboxamide]"
16,12.4,"C[C@@H](NC(=O)c1cn(C2(CF)CC2)c(=O)cc1N[C@H]1[C@@H]2CC[C@H]1CN(C)C2)c1cccc(C(F)F)c1F (single isomer, unassigned) [Example 260]"
